Key:
[1] = target: Butyrylcholinesterase (Equus caballus, UniProt Q9N1N9); assay: Inhibition of horse serum BChE
[2] = Selectivity for horse serum BChE over electric eel AChE
[3] = target: Acetylcholinesterase (Electrophorus electricus, UniProt O42275); assay: Inhibition of electric eel AChE
[4] = read-out: -Log IC50 (converted)

Chain of Acetylcholinesterase (O42275 whole entry): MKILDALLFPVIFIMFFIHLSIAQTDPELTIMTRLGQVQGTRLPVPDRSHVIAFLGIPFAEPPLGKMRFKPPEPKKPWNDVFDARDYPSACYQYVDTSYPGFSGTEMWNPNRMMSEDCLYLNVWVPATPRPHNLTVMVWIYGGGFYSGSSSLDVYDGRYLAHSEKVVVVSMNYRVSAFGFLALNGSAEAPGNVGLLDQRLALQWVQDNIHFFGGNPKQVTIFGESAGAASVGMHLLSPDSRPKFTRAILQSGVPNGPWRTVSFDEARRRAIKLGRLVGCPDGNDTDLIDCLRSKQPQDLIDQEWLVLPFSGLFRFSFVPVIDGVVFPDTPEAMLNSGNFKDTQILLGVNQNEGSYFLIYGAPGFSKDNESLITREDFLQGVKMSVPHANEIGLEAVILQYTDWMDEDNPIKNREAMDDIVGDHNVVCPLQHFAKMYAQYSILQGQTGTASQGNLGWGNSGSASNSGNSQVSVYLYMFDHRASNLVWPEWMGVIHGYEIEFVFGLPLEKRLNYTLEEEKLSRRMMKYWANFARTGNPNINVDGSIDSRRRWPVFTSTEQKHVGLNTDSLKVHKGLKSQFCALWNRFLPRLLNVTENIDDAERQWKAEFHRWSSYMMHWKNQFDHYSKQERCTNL
Chain of Butyrylcholinesterase (Q9N1N9 whole entry): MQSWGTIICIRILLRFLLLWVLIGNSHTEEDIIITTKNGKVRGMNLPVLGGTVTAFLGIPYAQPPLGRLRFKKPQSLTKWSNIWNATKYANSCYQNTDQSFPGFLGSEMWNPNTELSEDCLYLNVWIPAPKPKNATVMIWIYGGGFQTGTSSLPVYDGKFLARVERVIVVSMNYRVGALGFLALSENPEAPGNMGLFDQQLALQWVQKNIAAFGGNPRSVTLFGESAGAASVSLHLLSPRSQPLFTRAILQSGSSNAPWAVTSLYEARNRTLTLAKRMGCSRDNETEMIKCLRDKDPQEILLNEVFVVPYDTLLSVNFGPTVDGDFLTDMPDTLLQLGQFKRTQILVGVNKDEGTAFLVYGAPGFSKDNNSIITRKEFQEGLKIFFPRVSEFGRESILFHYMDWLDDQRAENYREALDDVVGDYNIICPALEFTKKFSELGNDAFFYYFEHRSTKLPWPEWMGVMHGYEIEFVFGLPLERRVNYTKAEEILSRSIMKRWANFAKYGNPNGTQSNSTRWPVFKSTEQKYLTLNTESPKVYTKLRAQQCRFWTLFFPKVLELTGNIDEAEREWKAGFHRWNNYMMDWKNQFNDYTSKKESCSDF

SMILES | IC50 ([1]; read-out: IC50) [nM] | Ratio IC50 [2] | IC50 [1, 4] [nM] | IC50 [3] [nM]
CCCC/N=c1/c2ccc(Cl)cc2nc2n1CCC2 | 2300 | 1.7 | – | –
N=c1c2ccccc2nc2n1CCC2 | 7200 | 1.8 | 716 | 13200
c1ccc2/c(=N/CCCCCCCC/N=c3/c4ccccc4nc4n3CCCCCC4)n3c(nc2c1)CCCCCC3 | 76 | 189 | – | 14400
c1ccc2/c(=N/CCCCCCCC/N=c3/c4ccccc4nc4n3CCC4)n3c(nc2c1)CCC3 | 4.8 | 12 | – | 58
Clc1ccc2c(c1)N=C1CCCN1C2NCCCCCCCC/N=c1/c2ccc(Cl)cc2nc2n1CCC2 (stereo unspecified) | 45.4 | 1.1 | – | 50.2
N=c1c2ccccc2nc2n1CCCCCC2 | 3000 | 4.9 | – | 14600
c1ccc2/c(=N/CCCCCCC/N=c3\c4ccccc4nc4n3CCCC4)n3c(nc2c1)CCCC3 | 8.5 | 9 | – | 77
c1ccc2/c(=N/CCCCCCC/N=c3\c4ccccc4nc4n3CCCCCC4)n3c(nc2c1)CCCCCC3 | 27 | 2.4 | – | 65
CCCC/N=c1/c2ccccc2nc2n1CCC2 | 5500 | 1.7 | – | 9500
c1ccc2/c(=N/CCCCCCC/N=c3\c4ccccc4nc4n3CCC4)n3c(nc2c1)CCC3 | 88 | 0.9 | – | 79
Clc1ccc2/c(=N/CCCCCCC/N=c3\c4ccc(Cl)cc4nc4n3CCC4)n3c(nc2c1)CCC3 | 61 | 1 | – | 59
c1ccc2/c(=N/CCCCCCCC/N=c3/c4ccccc4nc4n3CCCC4)n3c(nc2c1)CCCC3 | 7.6 | 4.9 | – | 37
c1ccc2/c(=N/CCCCCCC/N=c3\c4ccccc4nc4n3CCCCC4)n3c(nc2c1)CCCCC3 | 24 | 1.6 | – | 40
CC(=O)/N=c1/c2ccccc2nc2n1CCC2 | 204000 | 0.6 | 428000 | 115000
c1ccc2/c(=N/CCCCCCCC/N=c3/c4ccccc4nc4n3CCCCC4)n3c(nc2c1)CCCCC3 | 13 | 98 | – | 1280

From ChEMBL document CHEMBL1149472, “Homobivalent quinazolinimines as novel nanomolar inhibitors of cholinesterases with dirigible selectivity toward butyrylcholinesterase” (J Med Chem, 2006)
